pIC50: −log10 of the molar value. Entries after “also recorded” stand apart in the source; their conditions may differ.
Experiments:
R6/2 mice [1] = experiment: T2-MRI brain volumetry; type: in vivo, mouse; details: chronic administration, 13 weeks
Procedure: MRI analysis was performed for all mice at the age of 13 weeks in a horizontal 7T magnet with bore size 160 mm (Magnex Scientific Ltd., Oxford, UK) equipped with Magnex gradient set (max. gradient strength 400 mT/m, bore 100 mm) interfaced to a Varian DirectDrive console (Varian, Inc., Palo Alto, CA) using a volume coil for transmission and surface phased array coil for receiving (Rapid Biomedical GmbH, Rimpar, Germany). Isoflurane -anesthetized mice were fixed to a head holder and positioned in the magnet bore in a standard orientation relative to gradient coils. Rectal temperature (TC-1000 Temperature Controller, CWE Inc., Ardmore, PA, USA) and respiration (ECG Trigger Unit, Rapid Biomedical GmbH) were monitored throughout the study and the body temperature was kept at 36-37°C. […]
All values are presented as mean ± Standard Error of Mean (SEM), and differences are considered to be statistically significant at the p < 0.05 level. […] Differences between group means were analyzed by 1-way-ANOVA followed by Dunnett’s test (comparison to the control (=vehicle treated TG mice) group). The acquisition of the Cued two-choice swim test was analyzed using Fisher’s exact test.

R6/2 mice [2] = experiment: Lower dose behavioral efficacy study in R6/2 mice (Psychogenic); type: in vivo, mouse; details: lower doses, 0.3 – 3 mg/kg
R6/2 mice [3] = experiment: Acute and subchronic (2 weeks) tolerability evaluation in R6/2 mice; type: in vivo; details: R6/2 mice starting at 6 weeks of age, all doses administered
Excerpt: Prior to chronic dosing, we conducted an acute and subchronic (2 weeks) tolerability evaluation in R6/2 mice starting at 6 weeks of age (studies conducted at Psychogenics, USA; see Supplementary Report 1 for full details).

R6/2 hippocampal slices = experiment: Electrophysiological evaluation in R6/2 hippocampal slices (MEA, fEPSP); design: species or system mouse
Procedure: Electrophysiology was conducted at Neuroservice SARL, France. All animals were group housed under environmentaly enriched conditions and used in accordance with European legislations for animal care. On the day of recording, 7-8 week old R6/2 or wild type littermate (WT) mice were decapitated without anaesthesia followed by rapid brain removal into ice-cold oxygenated buffer (in mM; saccharose, 250, KCl 2, NaH2PO4 1.2, MgCl2 7, CaCl2 0.5, NaHCO3 26, glucose 11). Hippocampal slices (350 μm thickness) were prepared with a MacIlwain tissue-chopper and incubated at room temperature (RT, 18 – 22 °C) and allowed to recover for at least 1 h prior to recording in oxygenated Artificial Cerebro-Spinal Fluid (ACSF) of the following composition: (in mM; NaCl, 126, KCl 3.5, NaH2PO4 1.2, MgCl2 1.3, CaCl2 2, NaHCO3 25, D-glucose 11, pH 7.2). For experiments, individual slices were transferred to a 3-dimensional 60 electrode MEA chip (Ayanda Biosystems, Lausanne, Switzerland) and continuously perfused with oxygenated (95% O2–5% CO2) ACSF at 37 °C at a rate of 3 mlmin^-1, allowing for complete solution exchange within the MEA chamber 20 s following solution switches (MEA chamber volume: ~1 mL).
For stimulation, one MEA electrode underlying the Schaeffer collaterals at the CA3/CA1 interface was chosen visually as the stimulating electrode. The stimulus consisted of a monopolar biphasic current pulse (negative for 60 μs and then positive for 60 μs) applied at a frequency of 0.03 Hz. Recordings of resultant field excitatory postsynaptic potentials (fEPSPs) from electrodes underlying the CA1 region were made using MultiChannel Systems MCS GmbH software (MC Stim, MS Rack) and hardware composed of a 4-channel stimulus generator and a 60-channel amplifier head-stage connected to a 60-channel A/D card (Reutlingen, Germany). […] Paired pulse facilitation (PPF) was then assessed at 40 % of the maximal fEPSP amplitude response (as defined from the I/O curve) by delivering two pulses to the stimulating electrode with decreasing inter-stimulus intervals (ISI of 300 ms, 200 ms, 100 ms, 50 ms, 25 ms). PPF was performed 4 times per slice, and the resultant 4 fEPSP amplitudes at a given ISI were averaged together. […]
For measurement of long term potentiation (LTP), basal fEPSPs were recorded at 0.03 Hz for ten minutes at 40 % of maximal FEPSP amplitude to verify the baseline stability. […] Potentiation of fEPSP amplitude was then monitored for an additional 60 minute period. […]
For each slice, the fEPSP values at each electrode recorded within the CA1 region were averaged to obtain a single fEPSP value per slice per timepoint. […] Data was analysed using Repeat Measure Two-way ANOVA followed by a post hoc Bonferroni test to analyse statistical significance of single data points using Prism 5.0 software. […]

PDE1 = system: PDE1; design: method as in PMID 9216839, PMID 17697115, PMID 8961086, PMID 7581878; details: ref [12], [23], [27], [28], read-out: reported IC50; cited from earlier work

CN1C(=O)c2nc(Cc3ccc(C(F)(F)F)cc3)[nH]c2N2C1=N[C@H]1CCC[C@H]12 [SCH-51866, (+)-cis-5,6a,7,8,9,9a-hexahydro-2-[4-[trifluro-methyl]phenylmethyl]-5-methyl-cylopent[4,5]imidazo [2,1-b]purin-4(3H)one]
brain volume, cortex (MRI) (R6/2 mice [1]): no improvement in brain volume
brain volume, striatum (MRI) (R6/2 mice [1]): no improvement in brain volume
effect on disease progression / endpoints (rotarod, grip strength, open field, survival) (R6/2 mice [2]): no improvement noted in any endpoint; also recorded: no effect in ameliorating disease progression
tolerability (R6/2 mice [3]): well tolerated with no sign of adverse effects
basal synaptic transmission (input/output characteristics) (R6/2 hippocampal slices; 3 µM, R6/2 slices): no significant effect; also recorded: did not significantly reduce
paired pulse facilitation (PPF) (R6/2 hippocampal slices; 3 µM, R6/2 slices): restored R6/2 paired-pulse facilitation (PPF) to WT levels; also recorded: significantly restored to WT levels
long-term potentiation (LTP) (R6/2 hippocampal slices; 3 µM, R6/2 slices, vs ACSF alone): did not restore the deficit; also recorded: did not result in an amplitude of LTP significantly different
electrophysiological parameters in hippocampal slices, overall (R6/2 hippocampal slices; concentration sufficient to fully inhibit the PDE1 enzyme): does not improve
pIC50 (PDE1): 7.15
